Assays:
LP9 mesothelial cells = test: Viability of carboplatin-treated LP9 mesothelial cells; format: cell-based, human; conditions: increasing concentrations up to 1 μg/ml, 24 hours, data not shown
[1] = patients; cited from earlier work
[2] = system: VCAM-1 expression, SKOV3ip1 (platinum resistant) tumors; format: in vivo, mouse; conditions: SKOV3ip1 mice, single IP 25 mg/kg; 111In-tVCAM-4 omentum biodistribution; n=3
VCAM-1 = conditions: previous work; cited from earlier work

Compound	effect on cell viability (LP9 mesothelial cells)	injected dose excreted within 24 hours [1]	VCAM-1 expression above baseline 2 days after treatment [2]	affinity for VCAM-1 (VCAM-1)
N.N.O=C([O-])C1(C(=O)[O-])CCC1.[Pt+2] [carboplatin]	None of the concentrations tested altered	up to 80%	50%	
(βAKTLLPTPGGS(PEG5000))KKKDOTAβA-NH2 [tVCAM-4]				high affinity

Source: PMC3992874 (Journal of nuclear medicine : official publication, Society …, 2013)
